According to ChEMBL document CHEMBL1201862, “PubChem BioAssay data set” (2004):
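Step 1: Grow cells in 96-well plates. Step 2: Expose to compound for 48 hours at 5 concentrations. Step 3: Interpolate endpoints linearly; if unreached, use highest concentration. Here, GI50 denotes the concentration required for 50% inhibition of growth.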 Activity calls are given as the source filed them. Cut-off read from the data, not from the text of the source: active = GI50 up to about 1.1 µM and inactive = higher.

What was measured:
Assay in all cases: inhibition of tumour cell growth, NCI panel, 48 h
SNB-19 = test system: SNB-19
NCI-H23 = test system: NCI-H23
ACHN = test system: ACHN
EKVX = test system: EKVX
COLO 205 = test system: COLO 205
M14 = test system: M14
TK-10 = test system: TK-10
OVCAR-5 = test system: OVCAR-5
UO-31 = test system: UO-31
NCI/ADR-RES = test system: NCI/ADR-RES
OVCAR-3 = test system: OVCAR-3
DU-145 = test system: DU-145
IGROV-1 = test system: IGROV-1
KM12 = test system: KM12
RPMI-8226 = test system: RPMI-8226
UACC-62 = test system: UACC-62
MDA-MB-231 = test system: MDA-MB-231
BT-549 = test system: BT-549
SK-MEL-2 = test system: SK-MEL-2
MDA-N = test system: MDA-N

SMILES	GI50 (SNB-19)	GI50 (NCI-H23)	GI50 (ACHN)	GI50 (EKVX)	GI50 (COLO 205)	GI50 (M14)	GI50 (TK-10)	GI50 (OVCAR-5)	GI50 (UO-31)	GI50 (NCI/ADR-RES)	GI50 (OVCAR-3)	GI50 (DU-145)	GI50 (IGROV-1)	GI50 (KM12)	GI50 (RPMI-8226)	GI50 (UACC-62)	GI50 (MDA-MB-231)	GI50 (BT-549)	GI50 (SK-MEL-2)	GI50 (MDA-N)
Oc1ccc(CCc2cc(O)cc(O)c2)cc1 [DIHYDRORESVERATROL]	> 100 µM (inactive)	> 100 µM (inactive)	79.4 µM (inactive)	50.5 µM (inactive)	> 100 µM (inactive)	> 100 µM (inactive)	> 100 µM (inactive)	> 100 µM (inactive)	> 100 µM (inactive)	> 100 µM (inactive)	> 100 µM (inactive)	> 100 µM (inactive)	> 100 µM (inactive)	> 100 µM (inactive)	23.4 µM (inactive)	47.1 µM (inactive)	23.7 µM (inactive)	> 100 µM (inactive)	> 100 µM (inactive)	
O=C1NC(N2CCOCC2)=N/C1=C\c1ccccc1O	> 100 µM (inactive)	> 100 µM (inactive)	> 100 µM (inactive)	> 100 µM (inactive)	> 100 µM (inactive)	> 100 µM (inactive)	> 100 µM (inactive)	> 100 µM (inactive)	> 100 µM (inactive)	> 100 µM (inactive)	> 100 µM (inactive)	> 100 µM (inactive)	> 100 µM (inactive)	> 100 µM (inactive)	> 100 µM (inactive)		> 100 µM (inactive)		> 100 µM (inactive)	> 100 µM (inactive)
CC(CC[C@@H](C)C1CCC2[C@@H]3CC(O)C4CC(O)[C@@H](O)C[C@]4(C)C3CC[C@@]21C)C(C)(C)C (stereo partly specified)	> 100 µM (inactive)	> 100 µM (inactive)	> 100 µM (inactive)	> 100 µM (inactive)	> 100 µM (inactive)	> 100 µM (inactive)	> 100 µM (inactive)	> 100 µM (inactive)	> 100 µM (inactive)		> 100 µM (inactive)		> 100 µM (inactive)	> 100 µM (inactive)	> 100 µM (inactive)	> 100 µM (inactive)			> 100 µM (inactive)	
CCOC(=O)CCC(=O)C1c2cccc(O)c2C(=O)c2c(O)cc(C)cc21 (stereo unspecified)	0.327 µM (active)	0.962 µM (active)	0.993 µM (active)	1.82 µM (inactive)	2 µM (inactive)	1.4 µM (inactive)	1.87 µM (inactive)	0.706 µM (active)	0.627 µM (active)		0.533 µM (active)		0.289 µM (active)	0.245 µM (active)	1.01 µM (active)	0.434 µM (active)			0.344 µM (active)	
O=C1c2cc3c(cc2CC12Cc1cc4c(cc1C2=O)CCC4)CCC3	> 100 µM (inactive)	> 100 µM (inactive)	> 100 µM (inactive)	> 100 µM (inactive)	> 100 µM (inactive)	14.4 µM (inactive)	> 100 µM (inactive)	48.3 µM (inactive)	> 100 µM (inactive)	> 100 µM (inactive)	> 100 µM (inactive)	> 100 µM (inactive)	> 100 µM (inactive)	> 100 µM (inactive)	> 100 µM (inactive)	> 100 µM (inactive)	> 100 µM (inactive)	> 100 µM (inactive)	> 100 µM (inactive)	
COc1ccc(CCNCc2cccc(OC)c2OC)cc1OC	> 100 µM (inactive)	> 100 µM (inactive)	> 100 µM (inactive)	> 100 µM (inactive)	> 100 µM (inactive)	> 100 µM (inactive)	> 100 µM (inactive)	> 100 µM (inactive)	> 100 µM (inactive)		> 100 µM (inactive)		> 100 µM (inactive)	> 100 µM (inactive)	> 100 µM (inactive)	> 100 µM (inactive)			> 100 µM (inactive)	
